Several values for one entry are separate records, joined by “and”; a condition that tells them apart may be missing. Equal entries are not always repeated.
Tested on: peripheral blood lymphocytes collected from swine exposed to ASFV
Type: cell-based

Substance | Number of Spots
56 (MRYTQIYKYPL) [compound 56] | 23
64 (KVNNSMPLI) [compound 64] | 32
66 (CTYGEGNGHY) [compound 66] | 62
69 (KVNKSMPLI) [compound 69] | 255
70 (KSMPLIVENSY) [compound 70] | 35
84 (KVLGLLLGY) [compound 84] | 16
85 (KSELSYWCTY) [compound 85] | 20
241 (MVYNFNTLY) [compound 241] | 16
275 (ATYNHRKILIY) [compound 275] | 21
278 (MRIEIFWEL) [compound 278] | 15
279 (KTDLLNNEF) [compound 279] | 17
280 (SLSTLLLKY) [compound 280] | 12
283 (YTHLNTWRL) [compound 283] | 18
285 (QAMLSSIQYY) [compound 285] | 14
297 (LRHNFTKAIHY) [compound 297] | 16
309 (FTKAIHYFYKR) [compound 309] | 12
321 (KRHKNHLY) [compound 321] | 14
328 (KNHLYWRV) [compound 328] | 13
329 (ASLDYGMNL) [compound 329] | 12
335 (YLHETLFEL) [compound 335] | 12
357 (YSYCFIKHF) [compound 357] | 13
369 (KHTLQWLGLY) [compound 369] | 16
386 (RTENYNLVCEY) [compound 386] | 110
439 (ISPEKFIKI) [compound 439] | 16

Substance | Number of Spots
447 (NIIHTIYQSY) [compound 447] | 331
449 (HTIYQSYSL) [compound 449] | 19
458 (IVSEYINYLF) [compound 458] | 16
467 (QAYALEYAM) [compound 467] | 17
469 (HVVQRLGLY) [compound 469] | 14
478 (STYTEIVKY) [compound 478] | 33 and 19
523 (MGFSKPFMR) [compound 523] | 12
534 (RYFTFKFAAHL) [compound 534] | 12
557 (LIEFLTGFF) [compound 557] | 16
565 (SKVMDMICLDY) [compound 565] | 17
585 (VVDDVPSIDY) [compound 585] | 12
607 (NINCFNYCI) [compound 607] | 12
608 (INCFNYCILY) [compound 608] | 13
625 (SVFMWICIY) [compound 625] | 15
633 (ILEGVLGYF) [compound 633] | 14
635 (IRGRSLNMLSL) [compound 635] | 12
641 (GRSLNMLSLI) [compound 641] | 16
647 (GADPTQKDY) [compound 647] | 14
653 (WAVFTGNMEL) [compound 653] | 16
703 (STVITTAYNF) [compound 703] | 13
724 (HSDMYSVIFNI) [compound 724] | 15
725 (SDMYSVIFNI) [compound 725] | 15
726 (DMYSVIFNIKY) [compound 726] | 14
743 (SKFCNHMFF) [compound 743] | 16

Substance | Number of Spots
744 (SKFCNHMFFR) [compound 744] | 18
756 (FTDNLCFMM) [compound 756] | 19
757 (CFMMQCKSIY) [compound 757] | 16
769 (RLNAPNLKY) [compound 769] | 13
784 (KSKQASISSI) [compound 784] | 12
827 (NNVSYYWGL) [compound 827] | 13
835 (AMFFTRSEW) [compound 835] | 26
836 (RSEWASSNTF) [compound 836] | 31
839 (ASSSMHSGM) [compound 839] | 16
842 (SSMHSGMLY) [compound 842] | 13 and 23
847 (YINFRLKTFY) [compound 847] | 21
849 (FLKKNIYLY) [compound 849] | 13
857 (AVNSTGLIGY) [compound 857] | 17
860 (KARLCGLSY) [compound 860] | 14 and 19
865 (RRVHASYPGY) [compound 865] | 15
869 (GLAALVSPY) [compound 869] | 13
872 (RVDMNRFFQF) [compound 872] | 15 and 18
880 (SSIVFQHEM) [compound 880] | 66
884 (ISAINHFNY) [compound 884] | 19
888 (TMMHYPTFNW) [compound 888] | 12
889 (MMHYPTFNW) [compound 889] | 16
896 (SGLQSFYLY) [compound 896] | 18 and 26
906 (WVGYNNVCYY) [compound 906] | 12
908 (VGYNNVCYY) [compound 908] | 16

Substance | Number of Spots
921 (SVLLRDSGYY) [compound 921] | 14
923 (VLLRDSGYY) [compound 923] | 14 and 16
925 (KKQKHVSLL) [compound 925] | 14
926 (KQKHVSLLY) [compound 926] | 16
931 (SIDYWVSFNK) [compound 931] | 12
954 (NNFTATCII) [compound 954] | 15
960 (ETTLINCTYL) [compound 960] | 13
962 (TTLINCTY) [compound 962] | 12
963 (TLINCTYLTL) [compound 963] | 19
971 (LTLSSNYFY) [compound 971] | 12
977 (LSSNYFYTF) [compound 977] | 18
1001 (FKLYYIPLSI) [compound 1001] | 21
1006 (KRKKHVEEI) [compound 1006] | 13
1019 (TQPLNPFPL) [compound 1019] | 21
1020 (QTNCQLYFF) [compound 1020] | 18
1024 (SQKLVQLFY) [compound 1024] | 20
1033 (SVSPVFTSGY) [compound 1033] | 16
1049 (SLEFNTFYAF) [compound 1049] | 15
1065 (KTRGTRLFF) [compound 1065] | 36
1080 (FRDHFIAL) [compound 1080] | 16
1090 (ALFPQYISYY) [compound 1090] | 106
1091 (LFPQYISYY) [compound 1091] | 17
1106 (CSSCMVRTY) [compound 1106] | 130
1107 (RTIPVAWDRF) [compound 1107] | 18

From patent US20220105170A1 (priority 2019, published 2022)
